Data published in PubChem BioAssay (NCI).
Values joined by “and” are separate entries in the source; they are usually repeats but may differ in a detail not shown here. Equal values may be shown once.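 Five concentrations, 48 hours, 96-well plates. GI50: concentration for 50% inhibition of growth. Definition used: TGI = concentration required for complete inhibition of growth.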

Assays:
Experiment in all cases: NCI tumour cell line growth inhibition, 48 h
[1] = tested on: COLO 205 colon
[2] = tested on: MOLT-4 leukemia
[3] = tested on: RXF 393 renal
[4] = tested on: OVCAR-8 ovarian
[5] = tested on: OVCAR-5 ovarian
[6] = tested on: OVCAR-4 ovarian
[7] = tested on: M14 melanoma
[8] = tested on: K-562 leukemia
[9] = tested on: DU-145 prostate
[10] = tested on: CCRF-CEM leukemia

Compound | TGI [1] | TGI [2] | TGI [3] | TGI [4] | TGI [5] | TGI [6] | TGI [7] | TGI [8] | TGI [9] | GI50 [10] | TGI [10] | GI50 [1] | GI50 [2] | GI50 [3] | GI50 [4] | GI50 [5] | GI50 [6] | GI50 [8] | GI50 [7] [µM] | GI50 [9] [µM]
Clc1ccccc1NN(Cc1ccccn1)c1ccccc1Cl | 31.3 µM | 41.9 µM | 29.2 µM | 39.9 µM | 45.7 µM | 37.2 µM | 38.3 µM | 68.7 µM | > 100 µM | – | – | – | – | – | – | – | – | – | – | –
CSc1ccc(/C=C2\CNC/C(=C\c3ccc(SC)cc3)C2=O)cc1 | > 371 µM and 150 µg/mL | > 371 µM and 150 µg/mL | 81.1 µM and 34.2 µg/mL | > 102 µM and 150 µg/mL | > 371 µM and 150 µg/mL | > 371 µM and 28.7 µg/mL | > 371 µM | > 371 µM and 150 µg/mL | > 371 µM | 29.1 µg/mL | > 371 µM and 78.8 µg/mL | 150 µg/mL | 150 µg/mL | 74 µM and 10.8 µg/mL | 116 µg/mL | 150 µg/mL | > 371 µM and 18.7 µg/mL | 150 µg/mL | – | –
CCN(c1ccc(CO)c(Cl)c1)C(C)c1ccc(F)cc1 (configuration not stated) | 35.5 µM | 40 µM | 26 µM | 30.2 µM | 11.9 µM | 20.7 µM | 33.8 µM | 24.7 µM | 31.2 µM | 18 µM | 41.2 µM | 18.9 µM | 19.3 µM | 11 µM | 14.1 µM | 2.97 µM | 7.97 µM | 9.86 µM | 17.6 | 16.9
NS(=O)(=O)c1ccc(N2Cc3cc(Cl)ccc3OC3=C2C(=O)N(CC2CCCCC2)C3=O)cc1 | 2.28 µM | 0.531 µM | 1.77 µM | – | 3.54 µM | 2.46 µM | 2.95 µM | 0.736 µM | 2.25 µM | – | – | 0.716 µM | 0.195 µM | 0.495 µM | – | 1.76 µM | 0.897 µM | 0.27 µM | 1.25 | 1.06
CON(C)C(=O)C(C)NC(=O)OCc1ccccc1 (configuration not stated) | – | > 100 µM | > 100 µM | > 100 µM | > 100 µM | – | > 100 µM | > 100 µM | > 100 µM | – | > 100 µM | – | – | – | – | – | – | – | – | –
COC(=O)c1ccc2c(c1)C(NC(C)=O)CCc1cc(OC)c(OC)c(OC)c1-2 (configuration not stated) | 0.0194 µM | 51.6 µM | 6.65 µM | 9.1 µM | > 95.9 µM | > 100 µM | > 31.6 µM | 28.1 µM | 0.0865 µM | – | > 35.6 µM | – | – | – | – | – | – | – | – | –
COC(=O)C1=C(OC(=O)c2ccc(Cl)cc2)C(C(=O)OC)[C@@]2(O)[C@@H](C(=O)OC)C(c3ccccc3C(F)(F)F)C[C@@H]1[C@@H]2C(=O)OC (some centres not stated) | > 100 µM | 7.86 µM | 5.43 µM | 9.87 µM | > 100 µM | – | 13 µM | > 100 µM | > 100 µM | 3.54 µM | 31.2 µM | 3.31 µM | 2.7 µM | 2.14 µM | 2.72 µM | 54.2 µM | – | 3.36 µM | 3.16 | 6.1
O=C(O)c1cc[c]([Hg][S]c2ncnc3nc[nH]c23)cc1 | 26.9 µM | 15.3 µM | 18.8 µM | 25.3 µM | 29 µM | 28.9 µM | 14 µM | 15.7 µM | 25.1 µM | 4.55 µM | 21.8 µM | 12.4 µM | – | 2.95 µM | 4.44 µM | 14.1 µM | 10.3 µM | 1.7 µM | 2.18 | 7.47
Clc1ccc(COC(Cn2ccnc2)c2ccc(Cl)cc2Cl)cc1 (configuration not stated) | 3.97 µM and 24.6 µM and 22.5 µM | 5.89 µM and 20.7 µM and 18.1 µM | 6.78 µM and 31.7 µM and 29.1 µM | 10.1 µM and 28.7 µM and 32.8 µM | 16.8 µM and 24.4 µM and 28.1 µM | 13.6 µM and 27.7 µM and 24.5 µM | 10.2 µM and 29.8 µM and 26.2 µM | 10.2 µM and 23.9 µM and 21.1 µM | 17.8 µM and 30.1 µM and 28.2 µM | 3.22 µM | 14.1 µM and 23.7 µM and 21.1 µM | 1.84 µM | 2.03 µM | 2.01 µM | 1.7 µM | 4.24 µM | 2.29 µM | 2.8 µM | 2.92 | 5.41
CCc1nc(N)nc(N)c1-c1ccc([N+](=O)[O-])c(NCc2ccccc2)c1 | 35 µM | 26.6 µM | 52.7 µM | 42.2 µM | > 100 µM | 58.1 µM | 39.9 µM | 20.7 µM | 31.5 µM | – | 32.5 µM | – | – | – | – | – | – | – | – | –
COc1cc(-c2oc3ccccc3c(=O)c2O)cc(OC)c1OC | > 100 µM | > 100 µM | 42.6 µM | > 100 µM | > 100 µM | > 100 µM | > 100 µM | > 100 µM | > 100 µM | – | > 30.5 µM | – | – | – | – | – | – | – | – | –
N#CC(C#N)SCc1ccccc1 | > 33.2 µM | > 100 µM | 79 µM | 49.9 µM | > 40.3 µM | > 100 µM | > 100 µM | – | 55.3 µM | – | > 87 µM | – | – | – | – | – | – | – | – | –
S=C(N/N=C/c1cc(Cl)cc(Cl)c1)NC12CC3CC(CC(C3)C1)C2 | > 100 µM | > 100 µM | > 37.2 µM | > 100 µM | > 100 µM | 6.07 µM | > 100 µM | > 100 µM | > 100 µM | > 61.1 µM | > 100 µM | 7.13 µM | > 100 µM | 4.19 µM | 4.87 µM | 13.6 µM | 2.12 µM | > 100 µM | 65 | 12.8
COc1ccc(-c2cc(-c3ccc(Cl)cc3)c(C#N)c(=O)n2CCCCC(=O)Nc2ccccc2N)cc1 | > 100 µM | > 100 µM | 6.89 µM | > 100 µM | > 100 µM | > 100 µM | 8.14 µM | > 100 µM | > 100 µM | 4.87 µM | > 100 µM | 4.04 µM | 4.89 µM | 1.69 µM | 4.7 µM | 10.8 µM | 10.5 µM | 4.18 µM | 2.58 | 16.3
